# US20240246913A1, “2-CARBOXYL-INDOLE INHIBITORS OF METALLO-BETA-LACTAMASES” (Oxford University Innovation Limited, priority 2021, published 2024)
# What was measured:
# VIM-1 = VIM-1 (Pseudomonas aeruginosa, UniProt A0A0F7KYQ8); test: MBL inhibition, FC-5 fluorescence assay, VIM-1; assay type: biochemical; details: FC-5 cephalosporin substrate, ranges of obtained pIC50, read-out: pIC50 VIM-1 (converted)
# How it was run: (§1)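 Compound dilutions are incubated with enzyme and FC-5; the released fluorophore is read kinetically at ex 380/em 460 nm. Initial velocities are normalized and fitted (log inhibitor vs response, variable slope).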
# bacteria = test: Thigh and/or septicaemia mouse model of infection, with meropenem; assay type: in vivo; details: NMRI mice; single dose with meropenem subcutaneous 1 h after inoculation; endpoint 3 h after treatment initiation
# Description: Female NMRI mice (5-6 weeks old, 26-30 gram, n=5) were rendered neutropenic via intraperitoneal injection of two doses of cyclophosphamide on day 4 and day 1 before infection. The animals were infected via intramuscular injection of an inoculum containing 10^6 CFU/mL of bacteria in the left thigh. The animals were treated with a single dose of meropenem subcutaneous +/− inhibitor 1 h after inoculation, and animals were either euthanised at the start of treatment or at the study endpoint at 3 h after treatment initiation. Clinical scores were monitored at 1 and 4 hours post inoculation and were in all cases mild or moderate. Thighs were aseptically removed from the animals, homogenised, diluted, and plated for incubation. Bacterial counting was performed after 18-22 h of incubation at 35° C. in ambient air.
# Immunocompetent female NMRI mice mice (5-6 weeks old, 26-30 gram, n=5) were inoculated intraperitoneally with 0.5 ml inoculum containing 5×10^5 CFU suspended in 5% porcine mucin.
# The animals were treated with a single dose of meropenem subcutaneous+/−metallo-b-lactamase inhibitor intravenous 1 h after inoculation. Animals were either euthanised at the start of treatment or at the study endpoint at 3 h after treatment initiation. Clinical scores were monitored at 1 and 4 hours post inoculation and were in all cases mild or moderate. Mice were anaesthetised anesthetized with a buprenorphine/tiletamine/zolazepam cocktail and bled, then euthanized and the peritoneum flushed with 2 ml sterile 0.9% NaCl and collected. The blood and/or peritoneal flush were serially diluted and plated for incubation. Bacterial counting was performed after 18-22 h of incubation at 35° C. in ambient air.
# [1] = Plasma protein binding, equilibrium dialysis, human plasma; assay type: in vitro ADME; details: pH 7.4, equilibrium dialysis (RED) 4 hours at 37° C., read-out: Plasma protein binding, fu, Human
# How it was run: (§2)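 Compound at 10 μM in plasma dialysed against 67 mM phosphate buffer pH 7.4 for 4 h at 37° C. in RED device; unbound fraction from buffer and plasma levels by LC-MS/MS. Plasma stability checked in parallel over 4 h at 37° C. versus frozen control.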
# [2] = test system: Acinetobacter baumannii NDM-1; test: Antibiotic susceptibility testing (MIC), AB NDM-1; assay type: cell-based; details: agar or broth dilution (CLSI/EUCAST)
# Description: (§3) Antibiotic susceptibility testing was performed using the agar or broth dilution method, in line with the Clinical and Laboratory Standards Institute (CLSI) and European Committee on Antimicrobial Susceptibility Testing (EUCAST) requirements.
# NDM-1 = NDM-1 (Klebsiella pneumoniae, UniProt C7C422); test: MBL inhibition, FC-5 fluorescence assay, NDM-1; assay type: biochemical; details: FC-5 cephalosporin substrate, fluorescence; ranges of obtained pIC50; read-out: pIC50 NDM-1 (converted)
# Sequence of NDM-1 (C7C422 29-270, looked up, species assumed): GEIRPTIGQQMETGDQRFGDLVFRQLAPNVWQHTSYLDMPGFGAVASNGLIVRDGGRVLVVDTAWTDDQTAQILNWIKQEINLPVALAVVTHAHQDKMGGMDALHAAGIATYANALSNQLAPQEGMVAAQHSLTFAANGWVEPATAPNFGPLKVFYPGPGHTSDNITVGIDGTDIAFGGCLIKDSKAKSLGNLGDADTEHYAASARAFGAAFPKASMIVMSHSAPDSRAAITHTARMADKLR
# How it was run: as §1
# Escherichia coli NDM-7 = test: Antibiotic susceptibility testing (MIC), EC NDM-7; assay type: cell-based; details: agar or broth dilution (CLSI/EUCAST)
# Description: as §3
# [3] = Plasma protein binding, equilibrium dialysis, mouse plasma; assay type: in vitro ADME; details: pH 7.4, equilibrium dialysis (RED) 4 hours at 37° C., read-out: Plasma protein binding, fu, Mouse
# How it was run: as §2
# VIM-2 = VIM-2 (Escherichia coli, UniProt Q5U7L7); test: MBL inhibition, FC-5 fluorescence assay, VIM-2; assay type: biochemical; details: FC-5 cephalosporin substrate, ranges of obtained pIC50, read-out: pIC50 VIM-2 (converted)
# How it was run: as §1
# IMP-1 = IMP-1 (Serratia marcescens, UniProt P52699); test: MBL inhibition, FC-5 fluorescence assay, IMP-1; assay type: biochemical; details: FC-5 cephalosporin substrate, fluorescence; ranges of obtained pIC50; read-out: pIC50 IMP-1 (converted)
# Sequence of IMP-1 (P52699 19-246, looked up, species assumed): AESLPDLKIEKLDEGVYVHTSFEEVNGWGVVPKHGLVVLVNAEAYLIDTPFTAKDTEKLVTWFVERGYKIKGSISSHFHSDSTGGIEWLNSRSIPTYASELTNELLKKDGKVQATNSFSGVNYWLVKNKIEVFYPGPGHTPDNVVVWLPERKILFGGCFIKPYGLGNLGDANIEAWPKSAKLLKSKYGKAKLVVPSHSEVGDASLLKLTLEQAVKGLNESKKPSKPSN
# How it was run: as §1
# Escherichia coli NDM-1 = test: Antibiotic susceptibility testing (MIC), EC NDM-1; assay type: cell-based; details: agar or broth dilution (CLSI/EUCAST)
# Description: as §3
# [4] = Metabolic stability in mouse hepatocytes; assay type: in vitro ADME; details: cryopreserved mouse hepatocytes, 1 μM compound, 37° C., up to 90 min, read-out: Metabolic stability in hepatocytes, in vitro t1/2, Mouse
# Description: (§4) Metabolic stability assays were performed in cryopreserved human and mouse hepatocytes. The hepatocytes were thawed and added to “Thawing media”, and centrifuged to pellet the hepatocytes. The cell pellet was taken up in Williams medium E (Invitrogen A1217601), the number of cells was calculated and adjusted to 1.0×10^6 cells/mi. The incubation was carried out on a heater-shaker at […], in a 24-well Picoplate (round bottom, PerkinElmer), using an incubation volume of […]. Thus, to obtain a final compound concentration of 1 μM, 0.7 μl of the 1 mM compound stock solution was pipetted to the wells of the plate. Reaction was initiated by adding 700 μl of cell suspension. Samples were incubated at 37° C. for […] and a zero sample was taken, i.e. 100 μl sample was removed to a 96-well plate and the reaction was quenched by adding 100 μl of 100% MeCN containing 50 nM Warfarin as an internal control. Consecutive samples were taken at time-points 5 min, 15 min, 30 min, 60 min, and 90 min. After finishing the experiment, samples were centrifuged at 3000 rpm for 15 min and before analysis by LC-MS/MS (Waters Corp, Milford, MA, USA).
# [5] = Metabolic stability in human hepatocytes; assay type: in vitro ADME; details: cryopreserved human hepatocytes, 1 μM compound, 37° C., up to 90 min, read-out: Metabolic stability in hepatocytes, in vitro t1/2, Human
# Description: as §4
Structure (SMILES),IC50 (VIM-1),Dose required to reduce minim 1 log fold CFU in a thigh and or a sepsis animal model (bacteria),"fraction unbound at 4 h, 10 μM [1]",MIC values AB NDM-1 [2],IC50 (NDM-1),MIC values EC NDM-7 (Escherichia coli NDM-7),"fraction unbound at 4 h, 10 μM [3]",IC50 (VIM-2),IC50 (IMP-1),MIC values EC NDM-1 (Escherichia coli NDM-1),half-life at 1 μM [4],half-life at 1 μM [5]
"C[C@@H](c1cccc2c(-c3cncc(O)c3)c(C(=O)O)[nH]c12)N1C[C@]2(C[C@@H](CN)C2)OC1=O [IC-23, 7-((S)-1-((2S,4r)-2-(aminomethyl)-6-oxo-5-oxa-7-azaspiro[3.4]octan-7-yl)ethyl)-3-(5-hydroxypyridin-3-yl)-1H-indole-2-carboxylic acid]",1 to 10 nM,C (C = 5-10 mg/kg),0.05 to 0.25,B (B MIC values 2 ÷ 8),1 to 10 nM,A (A = MIC values ≤ 1),0.005 to 0.05,0.1 to 1 nM,> 10 nM,A (A = MIC values ≤ 1),,
"C[C@@H](c1cccc2c(-c3cc[nH]c(=O)c3)c(C(=O)O)[nH]c12)n1cc(CN2CC(N)C2)oc1=O [IC-54, 7-[(1S)-1-{5-[(3-Aminoazetidin-1-yl)methyl]-2-oxo-2,3-dihydro-1,3-oxazol-3-yl}ethyl]-3-(2-oxo-1,2-dihydropyridin-4-yl)-1H-indole-2-carboxylic acid]",> 10 nM,C (C = 5-10 mg/kg),> 0.25,B (B MIC values 2 ÷ 8),0.1 to 1 nM,A (A = MIC values ≤ 1),> 0.25,1 to 10 nM,> 10 nM,A (A = MIC values ≤ 1),,
"COc1cc(-c2c(C(=O)O)[nH]c3c([C@H](C)n4cc(CN5CC(N)C5)oc4=O)cccc23)ccn1 [IC-56, 7-[(1S)-1-{5-[(3-aminoazetidin-1-yl)methyl]-2-oxo-2,3-dihydro-1,3-oxazol-3-yl}ethyl]-3-(2-methoxypyridin-4-yl)-1H-indole-2-carboxylic acid]",> 10 nM,C (C = 5-10 mg/kg),0.05 to 0.25,B (B MIC values 2 ÷ 8),< 0.1 nM,A (A = MIC values ≤ 1),0.005 to 0.05,0.1 to 1 nM,> 10 nM,A (A = MIC values ≤ 1),< 2.5 h,> 6.67 h
"C[C@H](NC(=O)c1ccc(CN)cc1)c1cccc2c(-c3ccc(CN4CCOCC4)nc3)c(C(=O)O)[nH]c12 [IC-59, 7-((1S)-1-((4-(aminomethyl)benzoyl)amino)ethyl)-3-(6-(morpholin-4-ylmethyl)pyridin-3-yl)-1H-indole-2-carboxylic acid]",> 10 nM,B (B = 30-10 mg/kg),,A (A = MIC values ≤ 1),< 0.1 nM,A (A = MIC values ≤ 1),,< 0.1 nM,> 10 nM,A (A = MIC values ≤ 1),,
"CC(C)c1cccc2c(-c3cc(Cl)cc(Cl)c3)c(C(=O)O)[nH]c12 [Prior Art Compound 76, reference compound]",> 10 nM,A (A = >100 mg/kg),< 0.005,,1 to 10 nM,,< 0.005,0.1 to 1 nM,> 10 nM,,< 2.5 h,< 2.5 h
